Measured values: US10508281B2, “Disruption of ROCK1 gene leads to plants with improved traits” (priority 2014, dated 2019)
Residues, ends and D or L forms follow the SMILES beside them. *: point of attachment. Cbz = O=C(OCc1ccccc1)*

Experiments:
ROCK1 = molecular target: T1, ROCK1 (Arabidopsis thaliana, UniProt Q8LES0); assay: Nucleotide-sugar transport assay: uptake of radiolabeled nucleotide sugars into yeast microsomes expressing FLAG-ROCK1; assay type: biochemical; conditions: ER/Golgi microsomal vesicles from S. cerevisiae expressing FLAG-ROCK1 vs empty vector control
T1 construct: FLAG (N); made in house; host or cells: Saccharomyces cerevisiae BY4741 (microsomal vesicles)
T1 sequence (Q8LES0 1-325): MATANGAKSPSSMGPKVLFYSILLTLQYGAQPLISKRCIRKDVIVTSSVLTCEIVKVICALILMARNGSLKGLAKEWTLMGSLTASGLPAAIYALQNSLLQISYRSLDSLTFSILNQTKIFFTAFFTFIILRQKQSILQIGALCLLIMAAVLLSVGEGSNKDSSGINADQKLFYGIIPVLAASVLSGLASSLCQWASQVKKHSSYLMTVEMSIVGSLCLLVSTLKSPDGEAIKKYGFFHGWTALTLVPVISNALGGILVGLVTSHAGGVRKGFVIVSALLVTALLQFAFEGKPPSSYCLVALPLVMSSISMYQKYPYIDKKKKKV
Experimental: (B) Measurement of ROCK1-mediated uptake of radiolabeled nucleotide sugars into yeast microsomes expressing FLAG-ROCK1 or empty vector. Means±SEM (n=3; *, P<0.05, t test).
Nucleotide-sugar transport into Saccharomyces cerevisiae (BY4741) transformed with the construct pYEScupFLAGK-ROCK1 or the empty vector control was measured as described by Ashikov et al. (2005): “cultured cells were harvested by centrifugation (5 min at 1,500×g) and washed twice with ice-cold 10 mm NaN3. The weight of wet cells was measured, and cells were resuspended in zymolyase buffer (3 ml/g of cells; 50 mm potassium phosphate, pH 7.5; 1.4 m sorbitol; 10 mm NaN3 and 0.3% β-mercaptoethanol) containing 0.6 mg/ml of zymolyase-100T. The suspension was incubated for 20 min at 30° C. Spheroplasts were collected by centrifugation (5 min at 1,000×g) and resuspended in lysis buffer (4 ml/g of cells; 10 mm Hepes-Tris, pH 7.4; 0.8 m sorbitol; 1 mm EDTA) containing complete EDTA-free protease inhibitor mixture (Roche Applied Science). After homogenization with 10 strokes in a Dounce homogenizer, the lysate was centrifuged (5 min, 1,500×g) to remove unlysed cells and debris. Endoplasmic reticulum- and Golgi-rich fractions were then obtained by centrifugation at 10,000×g for 10 min (endoplasmic reticulum) and 100,000×g for 1 h (Golgi). The 100,000×g pellet was carefully resuspended in lysis buffer (0.8 ml/g of cells), and aliquots of 100 μl were snap-frozen and kept at −80° C. Protein concentrations were determined using the BCA™ kit (Pierce). For transport assay reactions, equal volumes (50 μl of each) of 2 mm radioactive nucleotide sugar (2,000-4,000 dpm/pmol) in assay buffer (10 mm Tris-HCl, pH 7.0; 0.8 m sorbitol; 2 mm MgCl2) and vesicle preparation (equivalent to 75-100 μg of protein) were incubated for 30 s at 30° C. Reactions were stopped by dilution with 1 ml of assay buffer containing 1 μm respective cold nucleotide sugar. The separation of vesicles and nucleotide sugars was achieved by filtration trough nitrocellulose filter (MF™ membrane filters Millipore, Bedford, Mass.). Filters were washed three times with 2 ml of ice-cold assay buffer containing the corresponding cold nucleotide sugar at a concentration of 1 μm, and radioactivity associated with the vesicular fraction was measured by liquid scintillation in a LS 5000CE counter (Beckman Coulter). Golgi vesicles from yeast cells transformed with an empty vector were used to measure endogenous transport.”
To directly test the transport specificity of ROCK1, a FLAG-tagged ROCK1 protein was expressed in Saccharomyces cerevisiae, which has, with the exception of GDP-Man, a low background for most nucleotide sugar transport activities and is commonly used as a heterologous test system for NSTs. […]

myc-CKX1 = myc-CKX1 level in seedlings after proteasome inhibitor treatment (immunoblotting and densitometry); assay type: in vivo, Arabidopsis thaliana; conditions: seedlings treated with 100 μM MG132
Experimental: FIG. 4. ROCK1 regulates ERQC and CKX protein stability. (A) N-glycosylation status of myc-CKX1 protein in wild-type and rock1 seedlings. Protein extracts were treated with PNGase F or EndoH and the size of myc-CKX1 was compared to mock-treated control by SDS-PAGE and immunoblot with anti-myc antibody. (B) The loss of GnT-I activity in cgl1 mutants has no influence on the shoot phenotype of 35S:CKX1 plants (21 dag). (C) The level of myc-CKX1 is decreased in rock1 compared to wild type. Total protein extracts were analyzed by immunoblot with anti-myc antibody. Coomassie blue staining of Rubisco large subunit (RbcL) was used as loading control. Relative densitometric analysis of the myc-CKX1 signal is shown. […] Protein extracts were prepared from 7-d-old seedlings treated with mock or 100 μM CHX for indicated times and analyzed by immunoblotting. […] Seedlings were treated with 100 μM MG132 and myc-CKX1 analyzed by immunoblotting and densitometry. […] (F) Quantitative real-time PCR analysis of UPR genes in shoots of soil-grown seedlings 9 dag measured by. […]
Proteins were extracted and the concentration determined as described for the CKX activity assay. […] Intensities were normalized to the loading control and calculated relative to wild type samples. […]
To test CKX1 turnover, we analyzed myc-CKX1 levels in the presence of the translation inhibitor cycloheximide (CHX). […]

ipt3,5,7 = assay: Restoration of growth of ipt3,5,7 mutant plants by CKX inhibitor application; assay type: in vivo, Arabidopsis thaliana; conditions: shoots sprayed with 10 μM INCYDE every 3 days; compared with suppression by rock1-1
Experimental: If not otherwise denoted, Arabidopsis thaliana Columbia-0 was used as the wild type. The T-DNA insertion lines rock1-2 (SALK_001259) and rock1-3 (901C01) were used. The following lines were described previously: 35S:CKX1-11, 35S:CKX2-9, 35S:CKX3-9, 35S:CKX7-GFP-26, ahk2-5, ahk3-7, cre1-2, atipt1, atipt3-2, atipt5-2, atipt7-1, cgl1 C6 (cgl1-2) and ARR5:GUS. Plants were grown in vitro on half-strength Murashige and Skoog (MS) medium containing 10 g/L sucrose, 0.5 g/L MES and 8 g/L phytagel. For analysis of root growth, 12 g/L phytagel and cytokinin or DMSO as solvent control were added to the medium. Plants were grown under long day conditions (16 h light/8 h dark; 21/18° C.) in vitro or in the green house. Shoots of soil grown plants were sprayed with 10 μM INCYDE and 0.01% Silwet L-77 every 3 days starting 3 days after germination. The binary vector constructs were transformed into Arabidopsis plants by Agrobacterium tumefaciens (strain GV3101:pMP90) mediated floral dip method.
To gain information about the specificity of rock1 in suppressing CKX overexpression phenotypes, rock1-1 was introgressed into 35S:CKX2, 35S:CKX3 and 35S:CKX7 plants.

SMILES | relative transport in ROCK1 microsomes versus empty vector control (in words) (ROCK1) | uptake in vesicles expressing ROCK1, increased in comparison to the control (ROCK1) [fold] | further results
CC1OC(OP(=O)(O)OP(=O)(O)OCC2OC(n3cnc4c(=O)[nH]c(N)nc43)C(O)C2O)C(O)C(O)C1O (stereo not shown) [GDP-Fuc] | lowered |  | 
Nc1nc2c(ncn2[C@@H]2O[C@H](COP(=O)(O)OP(=O)(O)O[C@H]3O[C@H](CO)[C@@H](O)[C@H](O)[C@@H]3O)[C@@H](O)[C@H]2O)c(=O)[nH]1 [GDP-Man] | lowered |  | 
CC(C)C[C@@H](C=O)NC(=O)[C@H](CC(C)C)NC(=O)[C@H](CC(C)C)NC(=O)OCc1ccccc1 [MG132] (Cbz-Leu-Leu-Leu-aldehyde) |  |  | effect on myc-CKX1 levels in rock1 background (myc-CKX1; rock1 background): strongly stabilized myc-CKX1 levels; effect on level of myc-CKX1 in wild type (myc-CKX1; wild type background): increased the level of myc-CKX1
CC(=O)N[C@H]1[C@@H](OP(=O)(O)OP(=O)(O)OC[C@H]2O[C@@H](n3ccc(=O)[nH]c3=O)[C@H](O)[C@@H]2O)O[C@H](CO)[C@H](O)[C@@H]1O [UDP-GalNAc, UDP-N-acetylgalactosamine] |  | 7 | 
CC(=O)N[C@H]1[C@@H](OP(=O)(O)OP(=O)(O)OC[C@H]2O[C@@H](n3ccc(=O)[nH]c3=O)[C@H](O)[C@@H]2O)O[C@H](CO)[C@@H](O)[C@@H]1O [UDP-GlcNAc, UDP-N-acetylglucosamine] |  | 3 | 
COc1cccc(Nc2nc(Cl)nc3nc[nH]c23)c1 [chemical inhibitor of CKX activity] |  |  | restoration of ipt3,5,7 growth (ipt3,5,7): comparable restoration of ipt3,5,7 growth
